From article PMC5034043 (The Journal of Biological Chemistry, 2016)
Read-outs that look alike come from different tables or passages of the source.

Experiments:
[1] = Physicochemical properties (density)
X. laevis tadpoles = assay: animal or person; format: in vivo; conditions: for EC50: Xenopus laevis, read-out: EC50 (95% CI); for observable toxicity in tadpoles / pharmacological end point in tadpoles: in vivo
Method: Behavioral activity was initially determined in albino X. laevis tadpoles (stages 45–47) as described previously ([29], [33]). All animal care and experimental procedures involving X. laevis tadpoles were carried out according to a protocol approved by the IACUC of the University of Pennsylvania.

α1β2γ2L GABAA receptors = target: T1, α1β2γ2L GABAA receptors (Homo sapiens, UniProt P14867+P47870); assay: cell-based
T1 construct: expressed in transfected cells; host or cells: Xenopus laevis oocytes
Method: GABAA receptor expression in X. laevis oocytes was completed as described previously ([40]). cDNAs for GABAA receptor α1, β2, and γ2L subunits were generously provided by Dr. Robert Pearce (University of Wisconsin). All animal care and experimental procedures involving X. laevis frogs were carried out according to a protocol approved by the IACUC of Thomas Jefferson University. GABAA receptor currents expressed in X. laevis oocytes were recorded as reported previously ([40]). Data acquisition and initial analysis were performed using pClamp 9.2/10.3 (Molecular Devices, Sunnyvale, CA). Macroscopic currents were low-pass filtered at 1 kHz and digitized at 2 kHz. Data were fit to a sigmoidal dose-response curve with variable Hill slope.

horse spleen apoferritin [2] = target: T2, horse spleen apoferritin (Equus caballus, UniProt P02791); assay: Isothermal titration calorimetry binding to apoferritin; conditions: one-site model, read-out: KD (95% CI), ITC
T2 construct: soluble protein model horse spleen apoferritin; from tissue; host or cells: horse spleen
T2 sequence (P02791 2-175 limits assumed): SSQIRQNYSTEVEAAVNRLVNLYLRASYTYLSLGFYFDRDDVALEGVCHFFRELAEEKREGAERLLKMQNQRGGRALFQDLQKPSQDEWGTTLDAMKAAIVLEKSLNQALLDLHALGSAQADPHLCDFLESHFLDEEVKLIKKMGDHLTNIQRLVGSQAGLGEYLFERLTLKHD
Method: Isothermal titration calorimetry isotherms for binding to soluble protein model horse spleen apoferritin were conducted as reported previously ([31]) and were resolved using a VP-isothermal titration calorimetry microcalorimeter (MicroCal, Inc., Northampton, MA). Origin 5.0 software was used to best-fit thermodynamic parameters to the heat profiles.

horse spleen apoferritin [3] = target: T2, horse spleen apoferritin; assay: 1-AMA displacement fluorescence assay; format: binding
Method: 1-AMA fluorescence inhibition has been reported as a reliable measurement of anesthetic occupation of the horse spleen apoferritin anesthetic site ([64]). 1-AMA displacement studies were conducted as described previously ([29]). The fluorescence intensity versus concentration data were fitted to variable slope Hill models to obtain the IC50 and Hill slope. The KD value was calculated using the Cheng-Prusoff equation to correct for the presence of the 1-AMA competitors.

T1 sequence (P14867 28-456): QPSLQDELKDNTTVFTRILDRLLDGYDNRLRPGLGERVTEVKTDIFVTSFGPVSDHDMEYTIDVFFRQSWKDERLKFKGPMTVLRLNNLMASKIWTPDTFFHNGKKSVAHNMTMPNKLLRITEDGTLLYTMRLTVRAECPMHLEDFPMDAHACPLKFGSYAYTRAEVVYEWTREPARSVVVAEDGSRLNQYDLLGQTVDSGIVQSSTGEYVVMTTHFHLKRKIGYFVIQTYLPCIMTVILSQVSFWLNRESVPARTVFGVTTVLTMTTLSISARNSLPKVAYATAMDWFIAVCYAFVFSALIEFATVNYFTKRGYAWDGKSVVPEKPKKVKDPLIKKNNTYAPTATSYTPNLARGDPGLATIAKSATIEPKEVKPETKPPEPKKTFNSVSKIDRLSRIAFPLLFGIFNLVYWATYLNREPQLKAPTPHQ
T1 sequence (P47870 25-512 limits assumed): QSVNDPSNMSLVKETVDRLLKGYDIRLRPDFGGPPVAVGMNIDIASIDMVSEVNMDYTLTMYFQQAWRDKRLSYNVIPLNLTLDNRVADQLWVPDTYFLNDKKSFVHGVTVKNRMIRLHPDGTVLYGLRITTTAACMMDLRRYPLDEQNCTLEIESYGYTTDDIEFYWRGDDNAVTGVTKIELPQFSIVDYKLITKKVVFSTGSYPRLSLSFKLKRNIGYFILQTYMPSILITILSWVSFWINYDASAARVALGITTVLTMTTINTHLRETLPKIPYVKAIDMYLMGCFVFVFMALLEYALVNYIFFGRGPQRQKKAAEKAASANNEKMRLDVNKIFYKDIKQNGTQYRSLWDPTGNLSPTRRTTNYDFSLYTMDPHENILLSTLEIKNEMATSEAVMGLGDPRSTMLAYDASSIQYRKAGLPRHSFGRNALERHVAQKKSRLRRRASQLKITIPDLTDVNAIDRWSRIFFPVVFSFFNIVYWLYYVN
T1 sequence (P18507 40-475 partner): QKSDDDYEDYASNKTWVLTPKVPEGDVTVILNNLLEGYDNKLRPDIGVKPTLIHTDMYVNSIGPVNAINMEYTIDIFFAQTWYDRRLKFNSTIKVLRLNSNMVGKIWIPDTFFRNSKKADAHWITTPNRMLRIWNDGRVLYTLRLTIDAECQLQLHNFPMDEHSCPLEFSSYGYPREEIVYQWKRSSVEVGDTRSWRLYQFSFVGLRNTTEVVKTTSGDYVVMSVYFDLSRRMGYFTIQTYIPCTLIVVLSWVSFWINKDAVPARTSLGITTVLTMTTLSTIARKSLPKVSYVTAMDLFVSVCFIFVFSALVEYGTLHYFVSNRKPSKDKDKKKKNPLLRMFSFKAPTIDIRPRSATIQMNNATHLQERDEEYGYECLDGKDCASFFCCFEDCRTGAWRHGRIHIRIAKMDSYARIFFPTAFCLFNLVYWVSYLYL

| Compound | Density [1] [g/mL] | EC50 (X. laevis tadpoles) [µM] | observable toxicity in tadpoles (X. laevis tadpoles) | pharmacological end point in tadpoles (X. laevis tadpoles) | EC50 (α1β2γ2L GABAA receptors) [µM] | Kd (horse spleen apoferritin [2]) [µM] | Hill slope (mean ± S.E.), 1-AMA displacement (horse spleen apoferritin [3]) | Kd (horse spleen apoferritin [3]) [µM] | EC50 (α1β2γ2L GABAA receptors; read-out: EC50 for positive modulation) [µM] | Kd (horse spleen apoferritin [3]; fluorescence data derived from the Cheng-Prusoff equation, read-out: KD (95% CI), 1-AMA displacement) [µM] |
| --- | --- | --- | --- | --- | --- | --- | --- | --- | --- | --- |
| CC(C)c1cccc(C(C)C)c1O [propofol, 2,6-diisopropylphenol, reference compound] | 0.96 | 0.9 | no observable toxicity | reversible hypnosis | 10 | 9 | −1.1 ± 0.33 | 2.4 |  |  |
| C#CCOCc1ccc(C2(C(F)(F)F)N=N2)cc1O [AziPm-click (1), 2-((prop-2-yn-1-yloxy)methyl)-5-(3-(trifluoromethyl)-3H-diazirin-3-yl)phenol] | 1.19 | 6.1 | no observable toxicity | reversible hypnosis |  | 22 | −0.97 ± 0.39 |  | 49 | 4 |
